{"source": "patent US5856166A", "about": "“Streptomyces proteases and methods for improved secretion of recombinantly-expressed proteins” (Cangene Corporation, priority 1994, dated 1999)", "note": "Where a SMILES comes first, the peptide text is derived from it. [ ]: non-standard residue; d: D form. The star is where a group is joined. Sta = CC(C)C[C@H](N)[C@@H](O)CC(=O)O; pNA = O=[N+]([O-])c1ccc(N*)cc1; AMC = Cc1cc(=O)oc2cc(N*)ccc12; Isovaleryl = CC(C)CC(=O)*; βNA = c1ccc2cc(N*)ccc2c1; Boc = CC(C)(C)OC(=O)*"}
{"biological_target": "T1, Tap (tripeptidyl aminopeptidase) (Streptomyces lividans, UniProt Q54410)", "T1 construct": "An autolytic tripeptide cleavage removing APA after signal peptide removal would yield the N-terminal found for the secreted protease; made in house; host or cells: Streptomyces lividans 66 (wild-type strain, native secreted enzyme purified from the broth)", "T1 sequence (Q54410 40-537)": "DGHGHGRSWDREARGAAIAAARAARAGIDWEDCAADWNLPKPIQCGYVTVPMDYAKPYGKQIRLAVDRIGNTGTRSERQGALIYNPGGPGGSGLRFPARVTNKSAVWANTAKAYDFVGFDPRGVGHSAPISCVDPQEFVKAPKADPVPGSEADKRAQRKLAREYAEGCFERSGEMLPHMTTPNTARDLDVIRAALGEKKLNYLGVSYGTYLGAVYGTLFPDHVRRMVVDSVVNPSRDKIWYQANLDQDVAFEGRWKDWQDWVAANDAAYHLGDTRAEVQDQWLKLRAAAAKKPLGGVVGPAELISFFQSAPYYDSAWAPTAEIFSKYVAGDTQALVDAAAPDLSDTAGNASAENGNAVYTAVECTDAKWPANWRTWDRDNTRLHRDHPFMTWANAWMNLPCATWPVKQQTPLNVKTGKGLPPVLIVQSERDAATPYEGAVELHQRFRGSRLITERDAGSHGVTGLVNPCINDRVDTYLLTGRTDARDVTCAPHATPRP", "assay": "Inhibition of TAP in the APA-pNA assay (protease inhibitor survey, Table I)", "format": "biochemical, S. lividans 66", "conditions": "inhibitor 0.1 mM; preincubated 15 minutes at 22° C.; substrate APA-pNA; enzyme only = 100", "protocol": "(§1) The protease and inhibitor were preincubated for 15 minutes at 22° C. Substrate was added and the mixture was incubated at 37° C. Activity was measured by monitoring the change in absorbance at λ=405 nm.\n(§2) The assay was conducted in a 96 well microtiter plate. To each well in the assay, 50 ul 100 mM Tris-HCl, pH 8.0, were added followed by 25 ul 3.2 mM APA-pNA. 25 ul of Tap were added to the wells and the absorbance was read at 405 nm. The assays were incubated at 37° C. for 2 hours. The absorbance was read at 405 nm. The activity (release of p-nitroaniline) was calculated from the change in absorbance."}
{"molecule": "[Cl][Hg][Cl]", "note": "[HgCl1]", "Residual Activity": 99}
{"molecule": "Chymostatin", "Residual Activity": 98}
{"biological_target": "T1, Tap (tripeptidyl aminopeptidase)", "assay": "Inhibition of TAP in the APA-pNA assay (protease inhibitor survey, Table I)", "format": "biochemical, S. lividans 66", "conditions": "inhibitor 0.1 mM; preincubated 15 minutes at 22° C.; substrate APA-pNA; enzyme only = 100; read-out: Residual Activity", "protocol": "as §1, §2", "units": {"remaining activity at 100 µM": "%"}}
{"molecule": "CC(C)C[C@H](NC(=O)N[C@H](C(=O)N[C@@H](CCC(N)=O)C(=O)N[C@@H](C)C=O)[C@@H]1CCNC(=N)N1)C(=O)O", "note": "[Elastatinal]", "remaining activity at 100 µM": 97}
{"molecule": "CC(C)CC(=O)N[C@H](C(=O)N[C@H](C(=O)N[C@@H](CC(C)C)[C@@H](O)CC(=O)N[C@@H](C)C(=O)N[C@@H](CC(C)C)[C@@H](O)CC(=O)O)C(C)C)C(C)C", "note": "[Pepstatin] (Isovaleryl-VV[Sta]A[Sta]-OH)", "remaining activity at 100 µM": 95}
{"biological_target": "T1, Tap (tripeptidyl aminopeptidase)", "assay": "Inhibition of TAP in the APA-pNA assay (protease inhibitor survey, Table I)", "format": "biochemical, S. lividans 66", "conditions": "inhibitor 1.0 mM; preincubated 15 minutes at 22° C.; substrate APA-pNA; enzyme only = 100", "protocol": "as §1, §2"}
{"molecule": "[Ca+2].[Cl-].[Cl-]", "note": "[CaCl2]", "Residual Activity": 96}
{"molecule": "[Cl-].[Cl-].[Co+2]", "note": "[CoCl2]", "Residual Activity": 98}
{"molecule": "[Cl][Hg][Cl]", "note": "[HgCl1]", "Residual Activity": 93}
{"biological_target": "T1, Tap (tripeptidyl aminopeptidase)", "assay": "Inhibition of TAP in the APA-pNA assay (protease inhibitor survey, Table I)", "format": "biochemical, S. lividans 66", "conditions": "inhibitor 1.0 mM; preincubated 15 minutes at 22° C.; substrate APA-pNA; enzyme only = 100; read-out: Residual Activity", "protocol": "as §1, §2", "units": {"remaining activity at 1000 µM": "%"}}
{"molecule": "OC(CS)C(O)CS", "note": "(stereo not drawn) [DTT]", "remaining activity at 1000 µM": 86}
{"biological_target": "T1, Tap (tripeptidyl aminopeptidase)", "assay": "Inhibition of TAP in the APA-pNA assay (protease inhibitor survey, Table I)", "format": "biochemical, S. lividans 66", "conditions": "inhibitor 10 mM; preincubated 15 minutes at 22° C.; substrate APA-pNA; enzyme only = 100", "protocol": "as §1, §2"}
{"molecule": "[Ca+2].[Cl-].[Cl-]", "note": "[CaCl2]", "Residual Activity": 97}
{"molecule": "[Cl-].[Cl-].[Co+2]", "note": "[CoCl2]", "Residual Activity": 97}
{"biological_target": "T1, Tap (tripeptidyl aminopeptidase)", "assay": "Inhibition of TAP in the APA-pNA assay (protease inhibitor survey, Table I)", "format": "biochemical, S. lividans 66", "conditions": "inhibitor 10 mM; preincubated 15 minutes at 22° C.; substrate APA-pNA; enzyme only = 100; read-out: Residual Activity", "protocol": "as §1, §2", "units": {"remaining activity at 10000 µM": "%"}}
{"molecule": "N=C(N)c1ccccc1", "note": "[Benzamidine]", "remaining activity at 10000 µM": 94}
{"biological_target": "T1, Tap (tripeptidyl aminopeptidase)", "assay": "Inhibition of TAP in the APA-pNA assay (protease inhibitor survey, Table I)", "format": "biochemical, S. lividans 66", "conditions": "read-out: Residual Activity", "protocol": "as §1, §2", "units": {"remaining activity at 1000 µM": "%", "remaining activity at 10000 µM": "%"}}
{"molecule": "O=C(O)CN(CCN(CC(=O)O)CC(=O)O)CC(=O)O", "note": "[EDTA, Ethylenediaminetetraacetic acid]", "remaining activity at 1000 µM": 95, "remaining activity at 10000 µM": 95}
{"biological_target": "T1, Tap (tripeptidyl aminopeptidase)", "assay": "Release of reporter group from synthetic substrates by pure Tap", "format": "biochemical, S. lividans 66", "conditions": "not given", "protocol": "The enzyme was also active when APM-pNA, APA-AMC, APS-bNA, GPL-bNA, and SPA-bNA were used as substrates. […] The enzyme only released the reporter group from substrates with a free amino terminal.\nas §2"}
{"molecule": "C[C@H](N)C(=O)Nc1ccc([N+](=O)[O-])cc1", "note": "[A-pNA, L-alanine p-nitroanilide]", "release of reporter group when used as substrate of Tap": "did not release the reporter group"}
{"molecule": "C[C@H](N)C(=O)N[C@@H](C)C(=O)Nc1ccc([N+](=O)[O-])cc1", "note": "[AA-pNA, L-alanyl-L-alanine p-nitroanilide] (H-Ala-Ala-pNA)", "release of reporter group when used as substrate of Tap": "did not release the reporter group"}
{"molecule": "C[C@H](N)C(=O)N[C@@H](C)C(=O)N1CCC[C@H]1C(=O)N[C@@H](C)C(=O)Nc1ccc([N+](=O)[O-])cc1", "note": "[AAPA-pNA, L-alanyl-L-alanyl-L-prolyl-L-analine p-nitroanilide] (H-AAPA-pNA)", "release of reporter group when used as substrate of Tap": "did not release the reporter group"}
{"molecule": "Cc1cc(=O)oc2cc(NC(=O)[C@H](C)NC(=O)[C@@H]3CCCN3C(=O)[C@H](C)N)ccc12", "note": "[APA-AMC, L-alanyl-L-prolyl-L-alanine 7-amino-4-methylcoumarin] (H-Ala-Pro-Ala-{AMC})", "release of reporter group when used as substrate of Tap": "active"}
{"molecule": "C[C@H](N)C(=O)N1CCC[C@H]1C(=O)N[C@@H](C)C(=O)Nc1ccc([N+](=O)[O-])cc1", "note": "[APApNA, L-alanyl-L-prolyl-L-alanine p-nitroanilide] (H-Ala-Pro-Ala-pNA)", "release of reporter group when used as substrate of Tap": "releases p-nitroaniline"}
{"molecule": "CSCC[C@H](NC(=O)[C@@H]1CCCN1C(=O)[C@H](C)N)C(=O)Nc1ccc([N+](=O)[O-])cc1", "note": "[APM-pNA, L-alanyl-L-prolyl-L-methione p-nitroanilide] (H-Ala-Pro-Met-pNA)", "release of reporter group when used as substrate of Tap": "active"}
{"molecule": "C[C@H](N)C(=O)N1CCC[C@H]1C(=O)N[C@@H](CO)C(=O)Nc1ccc2ccccc2c1", "note": "[APS-bNA, L-alanyl-L-prolyl-L-serine beta-naphthylamide] (H-Ala-Pro-Ser-βNA)", "release of reporter group when used as substrate of Tap": "active"}
{"molecule": "C[C@H](NC(=O)OC(C)(C)C)C(=O)N[C@@H](C)C(=O)N1CCC[C@H]1C(=O)N[C@@H](C)C(=O)Nc1ccc([N+](=O)[O-])cc1", "note": "[Boc-AAPA-pNA, N-t-butoxycarbonyl L-alanyl-L-alanyl-L-prolyl-L-alanine p-nitroanilide] (Boc-AAPA-pNA)", "release of reporter group when used as substrate of Tap": "did not release the reporter group"}
{"molecule": "C[C@H](NC(=O)[C@@H]1CCCN1C(=O)[C@H](C)NC(=O)OC(C)(C)C)C(=O)N[C@@H](CCCNC(=N)N)C(=O)N[C@@H](CO)C(=O)N1CCC[C@H]1C(=O)N[C@@H](C)C(=O)Nc1ccc2ccccc2c1", "note": "[Boc-APARSPA-bNA, L-alanyl-L-prolyl-L-analyl-L-arginyl-L-seryl-L-prolyl-L-alanine beta-naphthylamide] (Boc-APARSPA-βNA)", "release of reporter group when used as substrate of Tap": "did not release the reporter group"}
{"molecule": "N=C(N)NCCC[C@H](NC(=O)[C@H](Cc1ccccc1)NC(=O)[C@H]1CCCN1)C(=O)Nc1ccc([N+](=O)[O-])cc1", "note": "[D-PFR-pNA, D-prolyl-L-phenylalanyl-L-arginine p-nitroanilide] (H-[dP]-Phe-Arg-pNA)", "release of reporter group when used as substrate of Tap": "did not release the reporter group"}
{"molecule": "NCC(=O)N1CCC[C@H]1C(=O)Nc1ccc([N+](=O)[O-])cc1", "note": "[GP-pNA, Glycyl-L-proline p-nitroanilide] (H-Gly-Pro-pNA)", "release of reporter group when used as substrate of Tap": "did not release the reporter group"}
{"molecule": "CC(C)C[C@H](NC(=O)[C@@H]1CCCN1C(=O)CN)C(=O)Nc1ccc2ccccc2c1", "note": "[GPL-bNA, Glycyl-L-prolyl-L-leucine beta-napthylamide] (H-Gly-Pro-Leu-βNA)", "release of reporter group when used as substrate of Tap": "active"}
{"molecule": "CC(C)C[C@H](N)C(=O)Nc1ccc([N+](=O)[O-])cc1", "note": "[L-pNA, L-leucine p-nitroanilide]", "release of reporter group when used as substrate of Tap": "did not release the reporter group"}
{"molecule": "CC(=O)N[C@@H](C)C(=O)N1CCC[C@H]1C(=O)N[C@@H](C)C(=O)Nc1ccc([N+](=O)[O-])cc1", "note": "[N-Ac-APA-pNA, N-acetyl-L-alanyl-L-prolyl-L-alanine p-nitroanilide] (Ac-Ala-Pro-Ala-pNA)", "release of reporter group when used as substrate of Tap": "did not release the reporter group"}
{"molecule": "N=C(N)NCCC[C@H](NC(=O)c1ccccc1)C(=O)Nc1ccc([N+](=O)[O-])cc1", "note": "[N-Bz-R-pNA]", "release of reporter group when used as substrate of Tap": "did not release the reporter group"}
{"molecule": "O=C(Nc1ccc([N+](=O)[O-])cc1)[C@@H]1CCCN1", "note": "[P-pNA, L-proline p-nitroanilide]", "release of reporter group when used as substrate of Tap": "did not release the reporter group"}
{"molecule": "N=C(N)NCCC[C@H](N)C(=O)Nc1ccc([N+](=O)[O-])cc1", "note": "[R-pNA, L-arginine p-nitroanilide]", "release of reporter group when used as substrate of Tap": "did not release the reporter group"}
{"molecule": "N[C@@H](CO)C(=O)Nc1ccc2ccccc2c1", "note": "[S-bNA, L-serine beta-naphthylamide]", "release of reporter group when used as substrate of Tap": "did not release the reporter group"}
{"molecule": "C[C@H](NC(=O)[C@@H]1CCCN1C(=O)[C@@H](N)CO)C(=O)Nc1ccc2ccccc2c1", "note": "[SPA-bNA, L-seryl-L-prolyl-L-alanine beta-naphthylamide] (H-Ser-Pro-Ala-βNA)", "release of reporter group when used as substrate of Tap": "active"}
{"molecule": "N-benzoyl-L-alanyl-glycyl-L-arginine p-nitroanilide [N-Bz-VGR-pNA]", "release of reporter group when used as substrate of Tap": "did not release the reporter group"}
